Test results taken from EP4725957A1, “GROUP OF CYCLIC ALKALINE LIPOPEPTIDE COMPOUNDS, AND PREPARATION METHOD THEREFOR AND USE THEREOF” (Institute of Medicinal Biotechnology, Chinese Academy of …, priority 2023, dated 2024).
≈ marks a conversion by molar mass, not a printed value. Bridge positions count the residues as written; N and C are the ends. Square brackets hold non-standard residues; d marks the D form. Peptide text beside a SMILES is read from it. * marks the point of attachment. Heptanoyl(6-Me) = CC(C)CCCCC(=O)*; Nonanoyl = CCCCCCCCC(=O)*; X1 = CC[C@H](C)CCCCC(=O)*; Heptanoyl = CCCCCCC(=O)*; Octanoyl = CCCCCCCC(=O)*; Orn = NCCC[C@H](N)C(=O)O; Dab = NCC[C@H](N)C(=O)O; Dap = NC[C@H](N)C(=O)O

How the values were obtained:
Assay type in all cases: cell-based
[1] = Nephrotoxicity assay: in vitro cytotoxicity of HK-2 cells by CCK-8 assay; conditions: human, HK-2 cells (human renal), 72 h incubation with drug-containing medium
In short: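 HK-2 human renal cells in RPMI-1640 with 10% FBS were exposed to compounds at final 12.5–500 µg/mL for 72 h, then CCK-8 for 3 h and OD450 read. Viability was normalised to drug-free wells; IC50 came from logarithmic regression over three repeats, with polymyxin B as positive drug.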

[2] = system: Acinetobacter baumannii NCTC 13304 (OXA-27); conditions: NCTC 13304
In short: (§1)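 Minimal inhibitory concentrations are measured following CLSI microdilution guidance in MH broth. Test concentrations run from 64 down to 0.03 mg/L in doubling steps, with a final bacterial load of (2-4) × 10^5 CFU/mL and 16-20 h incubation at 35-37°C.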

[3] = system: Escherichia coli ATCC BAA-2523; conditions: ATCC BAA-2523
In short: as §1

[4] = system: Pseudomonas aeruginosa ATCC 27853; conditions: ATCC 27853
In short: as §1

[5] = system: Acinetobacter baumannii ABA19-1; conditions: ABA19-1
In short: as §1

[6] = system: Pseudomonas aeruginosa PAE19-3; conditions: PAE19-3
In short: as §1

[7] = system: Klebsiella pneumoniae ATCC BAA-1705 (KPC); conditions: ATCC BAA-1705
In short: as §1

[8] = system: Klebsiella pneumoniae KPN+19-15; conditions: KPN+19-15
In short: as §1

[9] = system: Escherichia coli ATCC BAA-2340 (KPC); conditions: ATCC BAA-2340
In short: as §1

## CCCCCCC(=O)N[C@@H](CCN)C(=O)N[C@H](C(=O)N[C@H](CO)C(=O)N[C@H]1CCNC(=O)[C@H]([C@@H](C)O)NC(=O)[C@H](CCN)NC(=O)[C@H](CCN)NC(=O)[C@H]([C@@H](C)O)NC(=O)[C@@H](Cc2ccccc2)NC(=O)[C@H](CN)NC1=O)[C@@H](C)O [Compound 64, Heptanoyl-Dab-Thr-D-Ser-ring(4-10)[Dab-Dap-D-Phe-Thr-Dab-Dab-Thr]] (Heptanoyl-[Dab]T[dS][Dab][Dap][dF]T[Dab][Dab]T; lactam 4-C)
[1]
  IC50 at 72 h: > 500 µg/mL
[2]
  MIC: 0.25 µg/mL (≈ 0.22 µM)
[3]
  MIC: 0.25 µg/mL (≈ 0.22 µM)
[4]
  MIC: 64 µg/mL (≈ 56.3 µM)
[5]
  MIC: 0.25 µg/mL (≈ 0.22 µM)
[6]
  MIC: 8 µg/mL (≈ 7.04 µM)
[7]
  MIC: 0.25 µg/mL (≈ 0.22 µM)
[8]
  MIC: 0.5 µg/mL (≈ 0.44 µM)
[9]
  MIC: 0.25 µg/mL (≈ 0.22 µM)

## CCCCCCCCC(=O)N[C@@H](CCN)C(=O)N[C@H](C(=O)N[C@H](CO)C(=O)N[C@H]1CCNC(=O)[C@H]([C@@H](C)O)NC(=O)[C@H](CCN)NC(=O)[C@H](CCN)NC(=O)[C@H]([C@@H](C)O)NC(=O)[C@@H](Cc2ccccc2)NC(=O)[C@H](CN)NC1=O)[C@@H](C)O [Compound 65, Nonanoyl-Dab-Thr-D-Ser-ring(4-10)[Dab-Dap-D-Phe-Thr-Dab-Dab-Thr]] (Nonanoyl-[Dab]T[dS][Dab][Dap][dF]T[Dab][Dab]T; lactam 4-C)
[1]
  IC50 at 72 h: 370 ± 31.8 µg/mL (≈ 318 µM)
[2]
  MIC: 0.25 µg/mL (≈ 0.215 µM)
[3]
  MIC: 0.25 µg/mL (≈ 0.215 µM)
[4]
  MIC: 64 µg/mL (≈ 55 µM)
[5]
  MIC: 0.25 µg/mL (≈ 0.215 µM)
[6]
  MIC: 8 µg/mL (≈ 6.87 µM)
[7]
  MIC: 0.25 µg/mL (≈ 0.215 µM)
[8]
  MIC: 0.5 µg/mL (≈ 0.429 µM)
[9]
  MIC: 0.25 µg/mL (≈ 0.215 µM)

## CC[C@H](C)CCCCC(=O)N[C@@H](CCN)C(=O)N[C@H](C(=O)N[C@H](CO)C(=O)N[C@H]1CCNC(=O)[C@H]([C@@H](C)O)NC(=O)[C@H](CCN)NC(=O)[C@H](CCN)NC(=O)[C@H]([C@@H](C)O)NC(=O)[C@@H](Cc2ccccc2)NC(=O)[C@H](CCCN)NC1=O)[C@@H](C)O [Compound 66, (S)-6-methyloctanoyl-Dab-Thr-D-Ser-ring(4-10)[Dab-Orn-D-Phe-Thr-Dab-Dab-Thr]] (X1-[Dab]T[dS][Dab][Orn][dF]T[Dab][Dab]T; lactam 4-C)
[1]
  IC50 at 72 h: > 500 µg/mL
[2]
  MIC: 0.25 µg/mL (≈ 0.21 µM)
[3]
  MIC: 0.125 µg/mL (≈ 0.105 µM)
[4]
  MIC: 64 µg/mL (≈ 53.7 µM)
[5]
  MIC: 0.25 µg/mL (≈ 0.21 µM)
[6]
  MIC: 4 µg/mL (≈ 3.35 µM)
[7]
  MIC: 0.25 µg/mL (≈ 0.21 µM)
[8]
  MIC: 0.5 µg/mL (≈ 0.419 µM)
[9]
  MIC: 0.125 µg/mL (≈ 0.105 µM)

## CC(C)CCCCC(=O)N[C@@H](CCN)C(=O)N[C@H](C(=O)N[C@H](CO)C(=O)N[C@H]1CCNC(=O)[C@H]([C@@H](C)O)NC(=O)[C@H](CCN)NC(=O)[C@H](CCN)NC(=O)[C@H]([C@@H](C)O)NC(=O)[C@@H](Cc2ccccc2)NC(=O)[C@H](CCCN)NC1=O)[C@@H](C)O [Compound 67, 6-methylheptanoyl-Dab-Thr-D-Ser-ring(4-10)[Dab-Orn-D-Phe-Thr-Dab-Dab-Thr]] ({Heptanoyl(6-Me)}-[Dab]T[dS][Dab][Orn][dF]T[Dab][Dab]T; lactam 4-C)
[1]
  IC50 at 72 h: > 500 µg/mL
[2]
  MIC: 0.25 µg/mL (≈ 0.212 µM)
[3]
  MIC: 0.25 µg/mL (≈ 0.212 µM)
[4]
  MIC: 64 µg/mL (≈ 54.3 µM)
[5]
  MIC: 0.25 µg/mL (≈ 0.212 µM)
[6]
  MIC: 4 µg/mL (≈ 3.39 µM)
[7]
  MIC: 0.25 µg/mL (≈ 0.212 µM)
[8]
  MIC: 0.5 µg/mL (≈ 0.424 µM)
[9]
  MIC: 0.25 µg/mL (≈ 0.212 µM)

## CCCCCCCC(=O)N[C@@H](CCN)C(=O)N[C@H](C(=O)N[C@H](CO)C(=O)N[C@H]1CCNC(=O)[C@H]([C@@H](C)O)NC(=O)[C@H](CCN)NC(=O)[C@H](CCN)NC(=O)[C@H]([C@@H](C)O)NC(=O)[C@@H](Cc2ccccc2)NC(=O)[C@H](CCCN)NC1=O)[C@@H](C)O [Compound 68, Octanoyl-Dab-Thr-D-Ser-ring(4-10)[Dab-Orn-D-Phe-Thr-Dab-Dab-Thr]] (Octanoyl-[Dab]T[dS][Dab][Orn][dF]T[Dab][Dab]T; lactam 4-C)
[1]
  IC50 at 72 h: > 500 µg/mL
[2]
  MIC: 0.25 µg/mL (≈ 0.212 µM)
[3]
  MIC: 0.25 µg/mL (≈ 0.212 µM)
[4]
  MIC: 64 µg/mL (≈ 54.3 µM)
[5]
  MIC: 0.25 µg/mL (≈ 0.212 µM)
[6]
  MIC: 4 µg/mL (≈ 3.39 µM)
[7]
  MIC: 0.25 µg/mL (≈ 0.212 µM)
[8]
  MIC: 0.5 µg/mL (≈ 0.424 µM)
[9]
  MIC: 0.25 µg/mL (≈ 0.212 µM)
